One assay addresses T1, GSK3-beta (Homo sapiens, UniProt P49841).
T1 construct: purchased Upstate 14-306
As to the kind of experiment: GSK3-beta Kinase-Glo Plus luminescent kinase assay. In kind it is biochemical. As to conditions: 10 μM compound; for inhibition at 10 µM: n=4, read-out: % Inhibition at 10 μM β. How it is done:
To analyze the activity of the compounds, the said compounds were subjected to biochemical assays. The biochemical assays as performed by the undermentioned methods are used to evaluate the potency of the compounds. This potency data is the indication of the bioactivity of the organic compounds which are described as inhibitors of GSK3beta.
(§1) GSK3 assays were performed using Kinase-Glo® Plus Luminescent Kinase Assay Kit (Promega V3772/3/4 P), in assay buffer (50 mM HEPES, 30 mM Magnesium acetate, 1 mM EDTA and 1 mM EGTA, pH 7.5) in white 96-well-Optiplates (Perkin Elmer). In a typical assay reaction mix (40 μl final volume) contained 10 μl of test compound (dissolved in DMSO), 10 μl of GSM peptide substrate (Upstate Cat#12-533) 20M-GSK3-beta; 25 μM-GSK3-alpha were added followed by 10 μl of enzyme 40 ng/well-GSK3-beta (Upstate Cat#14-306); 30 ng/well-GSK3-alpha (Upstate Cat#14-492) and 1 μM ATP. After incubation at room temperature for 30 minutes, 40 μl of Kinase-Glo reagent was added to stop the reaction, followed by another 5 minutes incubation at room temperature. Luminescence was measured using Wallac 1450 MicroBeta® TriLux (PerkinElmer) Liquid Scintillation and Luminescence Counter. The activity is expressed as a difference of the consumed ATP and total ATP.

A further assay concerns the target T2, GSK3-alpha (Homo sapiens, UniProt P49840).
T2 construct: purchased Upstate 14-492
As to the kind of experiment: GSK3-alpha Kinase-Glo Plus luminescent kinase assay. In kind it is biochemical. As to conditions: 10 μM compound, n=3, read-out: % Inhibition at 10 μM α. The method, then:
as §1
(Kinase-Glo reads ATP consumption through a luciferase reaction.)

T1 sequence (P49841 whole entry): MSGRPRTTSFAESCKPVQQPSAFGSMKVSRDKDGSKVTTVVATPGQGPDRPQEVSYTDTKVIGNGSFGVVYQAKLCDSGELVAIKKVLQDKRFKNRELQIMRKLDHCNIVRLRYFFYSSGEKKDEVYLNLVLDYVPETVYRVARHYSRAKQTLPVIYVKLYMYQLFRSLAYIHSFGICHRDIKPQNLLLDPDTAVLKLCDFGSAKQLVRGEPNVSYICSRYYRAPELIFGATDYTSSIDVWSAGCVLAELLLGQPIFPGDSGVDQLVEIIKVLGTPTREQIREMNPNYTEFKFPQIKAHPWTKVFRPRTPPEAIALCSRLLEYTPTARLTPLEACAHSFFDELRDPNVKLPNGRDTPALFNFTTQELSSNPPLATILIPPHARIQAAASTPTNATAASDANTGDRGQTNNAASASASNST
T2 sequence (P49840 whole entry): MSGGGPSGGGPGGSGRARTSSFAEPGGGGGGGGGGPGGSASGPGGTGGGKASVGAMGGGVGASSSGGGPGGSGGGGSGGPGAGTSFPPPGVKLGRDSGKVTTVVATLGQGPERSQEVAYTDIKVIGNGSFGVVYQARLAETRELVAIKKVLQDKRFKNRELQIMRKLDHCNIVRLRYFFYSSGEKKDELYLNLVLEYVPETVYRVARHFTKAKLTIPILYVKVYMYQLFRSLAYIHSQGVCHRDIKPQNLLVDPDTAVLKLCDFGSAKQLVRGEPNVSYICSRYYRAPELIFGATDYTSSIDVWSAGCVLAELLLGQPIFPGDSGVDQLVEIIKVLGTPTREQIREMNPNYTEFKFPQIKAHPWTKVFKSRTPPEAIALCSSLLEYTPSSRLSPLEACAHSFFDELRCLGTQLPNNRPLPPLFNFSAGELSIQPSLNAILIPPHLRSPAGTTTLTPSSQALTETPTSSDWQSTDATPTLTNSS

In the case of `CCOC(=O)Cn1cc(-c2ccco2)c(=O)[nH]c1=O` [Compound 1, (2,4-Dioxo-5-furan-2-yl-3,4-dihydro-2H-pyrimidin-1-yl)-acetic Acid Ethyl Ester], the inhibition at 10 µM came to 13% on GSK3-beta and 9% at GSK3-alpha.

In the case of `CCOC(=O)Cn1cc(-c2cccs2)c(=O)[nH]c1=O` [Compound 2, (2,4-Dioxo-5-thiophen-2-yl-3,4-dihydro-2H-pyrimidin-1-yl)-acetic acid Ethyl Ester], the figures for the inhibition at 10 µM at GSK3-beta and at GSK3-alpha were 77% and 68%, respectively.

For `O=c1[nH]c(=O)n(Cc2ccc(F)cc2)cc1-c1cccs1` [Compound 3, 1-(4-Fluoro-benzyl)-5-thiophen-2-yl-1H-pyrimidine-2,4-dione], the “% Inhibition at 10 μM β” value at GSK3-beta (n=4, 10 µM) stood at 68%. Further, the inhibition at 10 µM was determined as 66% at GSK3-beta and 11% on GSK3-alpha.

For the compound `O=c1[nH]c(=O)n(Cc2ccc(F)cc2)cc1-c1ccco1` [Compound 4, 1-(4-Fluoro-benzyl)-5-furan-2-yl-1H-pyrimidine-2,4-dione], the inhibition at 10 µM at GSK3-beta was 56%; on GSK3-alpha it was 72%.

Turning to `N#Cc1ccc(Cn2cc(-c3ccco3)c(=O)[nH]c2=O)cc1` [Compound 5, 4-(2,4-Dioxo-5-furan-2-yl-3,4-dihydro-2H-pyrimidin-1-ylmethyl)-benzonitrile], the results for the inhibition at 10 µM on GSK3-beta and at GSK3-alpha were 46% and 17%, respectively.

Turning to `O=c1[nH]c(=O)n(Cc2ccccc2)cc1-c1cccs1` [Compound 6, 1-Benzyl-5-thiophen-2-yl-1H-pyrimidine-2,4-dione], the inhibition at 10 µM is 45% at GSK3-beta and 10% at GSK3-alpha.

`N#Cc1cccc(Cn2cc(-c3cccs3)c(=O)[nH]c2=O)c1` [Compound 7, 3-(2,4-dioxo-5-thiophen-2-yl-3,4-dihydro-2H-pyrimidin-1-ylmethyl)-benzonitrile]: the inhibition at 10 µM was determined as 45% at GSK3-beta and 16% at GSK3-alpha.

With `N#Cc1cccc(Cn2c(=O)[nH]cc(-c3cccs3)c2=O)c1` [Compound 8, 3-(2,6-Dioxo-5-thiophen-2-yl-3,6-dihydro-2H-pyrimidin-1-ylmethyl)-benzonitrile], the inhibition at 10 µM was found to be 78% at GSK3-beta and 54% at GSK3-alpha.

On to `N#Cc1cccc(Cn2c(=O)[nH]cc(-c3ccco3)c2=O)c1` [Compound 9, 3-(5-furan-2-yl-2,6-dioxo-3,6-dihydro-2H-pyrimidin-1-ylmethyl)-benzonitrile], for which the inhibition at 10 µM is 64% on GSK3-beta and 22% at GSK3-alpha.

Regarding `O=c1[nH]cc(-c2cccs2)c(=O)n1Cc1ccc(F)cc1` [Compound 10, 3-(4-fluoro-benzyl)-5-thiophen-2-yl-1H-pyrimidine-2,4-dione], the inhibition at 10 µM turned out to be 13% at GSK3-beta and 6% at GSK3-alpha.

With `O=c1[nH]cc(-c2ccco2)c(=O)n1Cc1ccc(F)cc1` [Compound 11, 3-(4-fluoro-benzyl)-5-furan-2-yl-1H-pyrimidine-2,4-dione], the figures for the inhibition at 10 µM on GSK3-beta and at GSK3-alpha were 46% and 16%, respectively.

For `O=c1[nH]cc(-c2ccco2)c(=O)n1Cc1ccc([N+](=O)[O-])cc1` [Compound 12, 3-(4-nitro-benzyl)-5-furan-2-yl-1H-pyrimidine-2,4-dione], the figures for the inhibition at 10 µM at GSK3-beta and on GSK3-alpha were 75% and 55%, respectively.

Take `CCOC(=O)Cn1c(=O)[nH]cc(-c2ccco2)c1=O` [Compound 13, (2,6-dioxo-5-furan-2-yl-3,6-dihydro-2H-pyrimidin-1-yl)-acetic Acid Ethyl Ester]: the inhibition at 10 µM stood at 25% at GSK3-beta and 13% on GSK3-alpha.

Turning to `O=c1[nH]cc(-c2ccco2)c(=O)n1Cc1ccccc1` [Compound 14, 3-benzyl-5-furan-2-yl-1H-pyrimidine-2,4-dione], the figures for the inhibition at 10 µM at GSK3-beta and on GSK3-alpha were 63% and 42%, respectively.

Turning to `N#Cc1ccc(Cn2c(=O)[nH]cc(-c3ccco3)c2=O)cc1` [Compound 15, 4-(2,6-dioxo-5-furan-2-yl-3,6-dihydro-2H-pyrimidin-1-ylmethyl)-benzonitrile], the inhibition at 10 µM at GSK3-beta amounted to 21%; at GSK3-alpha, 14%.

`O=c1[nH]cc(-c2cccs2)c(=O)n1Cc1ccc([N+](=O)[O-])cc1` [Compound 17, 3-(4-nitro-benzyl)-5-thiophen-2-yl-1H-pyrimidine-2,4-dione]: the inhibition at 10 µM amounted to 58% on GSK3-beta and 8% on GSK3-alpha.

Consider `N#Cc1cccc(Cn2cc(-c3ccco3)c(=O)[nH]c2=O)c1` [Compound 18, 3-(5-furan-2-yl-2,4-dioxo-3,4-dihydro-2H-pyrimidin-1-ylmethyl)-benzonitrile], for which the inhibition at 10 µM at GSK3-beta is 31%; on GSK3-alpha, 10%.

Consider `N#Cc1ccc(Cn2cc(-c3cccs3)c(=O)[nH]c2=O)cc1` [Compound 19, 4-(2,4-dioxo-5-thiophen-2-yl-3,4-dihydro-2H-pyrimidin-1-ylmethyl)-benzonitrile], for which the figures for the inhibition at 10 µM on GSK3-beta and on GSK3-alpha were 23% and 15%, respectively.

On to `O=c1[nH]cc(-c2ccco2)c(=O)n1Cc1cc(F)cc(F)c1` [Compound 20, 3-(3,5-difluoro-benzyl)-5-furan-2-yl-1H-pyrimidine-2,4-dione], for which the inhibition at 10 µM on GSK3-beta was 53%; at GSK3-alpha it was 11%.

One may read the inhibition as the drop in the measured response relative to a control, in per cent. The % Inhibition is the change of the read-out against control, counted positive when it falls.

The values above are taken from patent US20090149485A1, “PYRIMIDINEDIONES AS TYROSINE KINASE INHIBITORS” (Jubilant Biosys Limited, priority 2006, published 2009).
